In patent US20190225644A1, “MRNA CAP ANALOGS AND METHODS OF MRNA CAPPING” (ModernaTX, Inc., priority 2015, published 2019):
Where “and” joins values, the source holds several entries; their conditions need not be identical. Identical values can stand only once. Like-named read-outs stand apart in the source and are kept apart here.

How the values were obtained:
HeLa Lysate = test: Cap competition assay in kinetic cell free in vitro translation (free cap analogs); format: biochemical; details: free cap analog 0-100 uM against Cap1-tipped eGFP modRNA, fluorescence plateau
Protocol: The in vitro translation assay was conducted with the HeLa 1-step coupled IVT kit (ThermoFisher Scientific, Waltham, Mass.) according to the manufacturer's instructions to assess performance of new cap analogs as free compounds or as an integral part of capped mRNA. Cap analogs with affinity to eIF4E protein may reduce protein synthesis rate in cell-free translation. Further, RNAs containing such cap analogs (“Cap-modRNA”) show different potency of protein synthesis in cell-free translation.
For competition assays, the total volume of the cell-free translation reaction was increased to 27.8 uL by addition of either water or diluted free CAP analogs in water. The stock concentration of the free CAP analogs was 1 mM. With two-fold dilutions in water, the concentration was reduced sequentially. […] The CAP analogs used in this study were either commercial products serving as reference material (TriLink, San Diego, Calif.) or compounds disclosed herein. It is hypothesized that the small molecule cap analogs interfere with the assembly of the “closed loop” in a Kd-dependent fashion.
After the fluorescent signal in cell-free translation reaction reached a stable plateau, absolute values thereof were transferred to a statistical analysis program (GraphPad Software, La Jolla, Calif.) and curve fitting or IC50 calculations were derived with settings according to the instructions of the manufacturer.
The results from the cap competition assays are illustrated in FIGS. 1A-1C and 2A-2D. In this study, each of the modRNAs used comprises 1-methyl-pseudouridine, which replaces each uridine in the RNA sequence and 5-methyl cytidine, which replaces each cytidine in the RNA sequence. Further, Table 11 includes the IC50 values of certain compounds of the disclosure.

eIF4E [1] = target: T1, eIF4E (Homo sapiens, UniProt P06730)
Protocol: (§1) A sensor chip SA (GE Healthcare) is docked into a Biacore 3000 instrument.
(§2) Compound concentration series are injected over the immobilized protein serially in increasing concentration. Interaction models are fitted globally to the experimental traces, enabling determination of Kd or KD (binding affinity; unit: M) and possibly kon (on-rate, calculated from the association phase; unit: M^−1s^−1) and koff (off-rate, calculated from the dissociation phase; unit: s^−1).
(§3) A sensor chip (SAD5001 or SA) was docked into a Biacore 3000 instrument, washed with 50 mM NaOH, 1M NaCl. Protein eIF4E was diluted in running buffer (50 mM HEPES, 150 mM KCl, 10 mM MgCl2, 2 mM TCEP) to ˜1 μM. The diluted protein solution was injected for 300-600 seconds. Typical capture levels were 5000-6000 RU.
(§4) Test compounds were solubilized in ddH2O or DMSO to 10 mM. 100 μM stocks were prepared by 100-fold dilution in running buffer (50 mM HEPES, 150 mM KCl, 10 mM MgCl2). Assay was run with or without 1% DMSO.
(§5) Data were analyzed in GeneData. Curve fit was accepted or rejected by looking at the resulting sensorgrams and steady state fits.
(§6) Assay has been validated using running buffer with and without DMSO. […] Further, newly captured protein stabilizes slowly, leading to negative responses during the dissociation phase for compounds injected over newly captured protein.

eIF4E [2] = target: T1, eIF4E; test: Binding affinities to eIF4E using surface plasmon resonance (SPR); details: for koff: read-out: koff (s^−1)
Protocol: as §1, §2, §3, §4, §5, §6

eIF4E [3] = target: T1, eIF4E; test: biochemical
Protocol: as §1, §2, §3, §4, §5, §6

T1 sequence (P06730 32-217): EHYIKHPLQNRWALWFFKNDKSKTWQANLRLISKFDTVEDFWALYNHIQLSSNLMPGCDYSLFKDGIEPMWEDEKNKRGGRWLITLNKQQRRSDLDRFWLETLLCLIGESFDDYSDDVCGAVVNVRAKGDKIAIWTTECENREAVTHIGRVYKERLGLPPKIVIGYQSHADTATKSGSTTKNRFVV

| Structure (SMILES) | IC50 (HeLa Lysate) [µM] | koff (eIF4E [1]) [s⁻¹] | τ (eIF4E [2]) [s] | koff (eIF4E [2]) [s⁻¹] | Kd (eIF4E [3]) |
| --- | --- | --- | --- | --- | --- |
| Cn1c[n+]([C@@H]2O[C@H](COP(=O)(O)OP(=O)([O-])OP(=O)(O)OC[C@H]3O[C@@H](n4cnc5c(=O)[nH]c(N)nc54)[C@H](O)[C@@H]3O)[C@@H](O)[C@H]2O)c2nc(N)[nH]c(=O)c21 [Cap0, m7GpppG, reference compound] | 35 | – | – | – | – |
| Nc1nc2c(ncn2[C@@H]2O[C@H](COP(=O)(O)OP(=O)(O)OP(=O)(O)OC[C@H]3O[C@@H](c4cn(CCOc5ccc(Cl)cc5)c5c(=O)[nH]c(N)nc45)[C@H](O)[C@@H]3O)[C@@H](O)[C@H]2O)c(=O)[nH]1 [Compound 005-1] | 25 | 0.08 | – | – | – |
| BP(=O)(OP(=O)([O-])OC[C@H]1O[C@@H](n2c[n+](CCOc3ccc(Cl)cc3)c3c(=O)[nH]c(N)nc32)[C@H](OC)[C@@H]1O)OP(=O)(O)OC[C@H]1O[C@@H](n2cnc3c(=O)[nH]c(N)nc32)[C@H](O)[C@@H]1O (stereo partly drawn) [Compound 005-2] | – | – | 83.33 | 0.012 | 0.1 µM |
| BP(=O)(OP(=O)([O-])OC[C@H]1O[C@@H](n2c[n+](C)c3c(=O)[nH]c(N)nc32)[C@H](OC)[C@@H]1O)OP(=O)(O)OC[C@H]1O[C@@H](n2cnc3c(=O)[nH]c(N)nc32)[C@H](O)[C@@H]1O (stereo partly drawn) [Compound 005-3] | – | – | – | – | 0.5 to 1.1 µM |
| CO[C@@H]1[C@H](O)[C@@H](COP(=O)(O)OP(=O)([O-])OP(=O)(O)OC[C@H]2O[C@@H](n3cnc4c(=O)[nH]c(N)nc43)[C@H](O)[C@@H]2O)O[C@H]1n1c[n+](CCOc2ccc(Cl)cc2)c2c(=O)[nH]c(N)nc21 [Compound 005-5] | 2 | 0.04 | – | – | 0.2 µM |
| CO[C@@H]1[C@H](O)[C@@H](COP(=O)(O)OP(=O)([O-])OP(=O)([O-])OP(=O)(O)OC[C@H]2O[C@@H](n3c[n+](C)c4c(=O)[nH]c(N)nc43)[C@H](O)[C@@H]2O)O[C@H]1n1c[n+](C)c2c(=O)[nH]c(N)nc21 [Compound 005-6] | – | 0.41 | – | – | 1.1 µM |
| CO[C@@H]1[C@H](O)[C@@H](COP(=O)([O-])OP(=O)([O-])OP(=O)(O)OC[C@H]2O[C@@H](n3c[n+](C)c4c(=O)[nH]c(N)nc43)[C@H](O)[C@@H]2O)O[C@H]1n1c[n+](C)c2c(=O)[nH]c(N)nc21 [Compound 005-7] | – | 0.26 | – | – | 2.7 µM |
| CO[C@@H]1[C@H](O)[C@@H](COP(=O)([O-])OP(=O)([O-])OC[C@H]2O[C@@H](n3c[n+](C)c4c(=O)[nH]c(N)nc43)[C@H](O)[C@@H]2O)O[C@H]1n1c[n+](C)c2c(=O)[nH]c(N)nc21 [Compound 005-8] | – | 3.8 | – | – | 75 µM |
| C[n+]1cn([C@@H]2O[C@H](COP(=O)(O)OP(=O)([O-])OP(=O)([O-])OP(=O)(O)OC[C@H]3O[C@@H](n4c[n+](C)c5c(=O)[nH]c(N)nc54)[C@H](O)[C@@H]3O)[C@@H](O)[C@H]2O)c2nc(N)[nH]c(=O)c21 [Compound 005-9] | 9 | 0.41 | – | – | 1.1 µM and 1 µM |
| C[n+]1cn([C@@H]2O[C@H](COP(=O)(O)OP(=O)([O-])OP(=O)(O)OC[C@H]3O[C@@H](n4cnc5c(=O)[nH]c(N)nc54)[C@H](O)[C@@H]3O)[C@@H](O)[C@@H]2O)c2nc(N)[nH]c(=O)c21 [Compound 005-11] | 92 | – | – | – | – |
| COCCO[C@H]1[C@H](O)[C@@H](COP(=O)(O)OP(=O)([O-])OP(=O)(O)OC[C@H]2O[C@@H](n3cnc4c(=O)[nH]c(N)nc43)[C@H](O)[C@@H]2O)O[C@H]1n1c[n+](C)c2c(=O)[nH]c(N)nc21 [Compound 005-12] | 21 | 0.9 | – | – | 4.3 µM and 4 µM |
| C=CCn1c(=O)n([C@@H]2O[C@H](COP(=O)(O)OP(=O)(O)OP(=O)(O)OC[C@H]3O[C@@H](n4cnc5c(=O)[nH]c(N)nc54)[C@H](O)[C@@H]3O)[C@H]3OC(C)(C)O[C@@H]32)c2nc(N)[nH]c(=O)c21 [Compound 005-13] | 318 | – | – | – | 218 µM |
| CO[C@@H]1[C@H](O)[C@@H](COP(=O)(O)OP(=O)([O-])OP(=O)(O)OC[C@H]2O[C@@H](n3cnc4c(=O)[nH]c(N)nc43)[C@H](O)[C@@H]2O)O[C@H]1n1c[n+](C)c2c(=O)[nH]c(N)nc21 [Compound 005-14] | 48 | 1.7 | – | – | 6.4 µM and 4 µM |
| C[n+]1cn([C@@H]2O[C@H](COP(=O)([O-])OP(=O)([O-])OC[C@H]3O[C@@H](n4c[n+](C)c5c(=O)[nH]c(N)nc54)[C@H](O)[C@@H]3O)[C@@H](O)[C@H]2O)c2nc(N)[nH]c(=O)c21 [Compound 005-15] | – | 3.8 | – | – | 75 µM |
| COCCO[C@@H]1[C@H](O)[C@@H](COP(=O)(O)OP(=O)([O-])OP(=O)(O)OC[C@H]2O[C@@H](n3cnc4c(=O)[nH]c(N)nc43)[C@H](OC)[C@@H]2O)O[C@H]1n1c[n+](C)c2c(=O)[nH]c(N)nc21 [Compound 005-19] | – | 0.94 | – | – | 4.2 µM |
| C[n+]1cn([C@H]2C[C@H](O)[C@@H](COP(=O)(O)OP(=O)([O-])OP(=O)(O)OC[C@H]3O[C@@H](n4cnc5c(=O)[nH]c(N)nc54)[C@H](O)[C@@H]3O)O2)c2nc(N)[nH]c(=O)c21 [Compound 005-31] | – | – | – | – | 3.58 µM |
| BP(=O)(OP(=O)([O-])OC[C@H]1O[C@@H](n2c[n+](C)c3c(=O)[nH]c(N)nc32)[C@H](O)[C@@H]1O)OP(=O)(O)OC[C@H]1O[C@@H](n2cnc3c(=O)[nH]c(N)nc32)[C@H](O)[C@@H]1O (stereo partly drawn) [Compound 005-32] | – | – | 9.09 | 0.11 | 0.33 µM |
| C[n+]1cn([C@H]2CN(CCO)C[C@@H](COP(=O)([O-])OP(=O)(O)OP(=O)(O)OC[C@H]3O[C@@H](n4cnc5c(=O)[nH]c(N)nc54)[C@H](O)[C@@H]3O)O2)c2nc(N)[nH]c(=O)c21 [Compound 006-3] | 33 | 0.6 | – | – | 8 to 9 µM and 9 µM |
| C#CCN1C[C@@H](COP(=O)([O-])OP(=O)(O)OP(=O)(O)OC[C@H]2O[C@@H](n3cnc4c(=O)[nH]c(N)nc43)[C@H](O)[C@@H]2O)O[C@@H](n2c[n+](C)c3c(=O)[nH]c(N)nc32)C1 [Compound 006-27] | – | 1 | – | – | 9.1 µM |
| BP(=O)(OP(=O)([O-])OC[C@H]1O[C@@H](n2cnc3c(=O)[nH]c(N)nc32)[C@H](O)[C@@H]1O)OP(=O)(O)OCC1CN(C)CC(n2c[n+](C)c3c(=O)[nH]c(N)nc32)O1 (stereo partly drawn) [Compound 006-30] | – | – | – | – | 1.7 µM |
| C[n+]1cn(C2CN(Cc3ccccc3)CC(COP(=O)(O)OP(=O)([O-])OP(=O)([O-])OC[C@H]3O[C@@H](n4c[n+](C)c5c(=O)[nH]c(N)nc54)[C@H](O)[C@@H]3O)O2)c2nc(N)[nH]c(=O)c21 (stereo partly drawn) [Compound 006-31] | – | 0.33 | – | – | 2.4 µM |
| C[n+]1cn(C(CO)OC(CO)COP(=O)(O)OP(=O)(O)OP(=O)(O)OC[C@H]2O[C@@H](n3cnc4c(=O)[nH]c(N)nc43)[C@H](O)[C@@H]2O)c2nc(N)[nH]c(=O)c21 (stereo partly drawn) [Compound 006-36] | – | – | – | – | 12 µM |
| CO[C@@H]1[C@H](O)[C@@H](COP(=O)(O)OP(=O)([O-])OP(=O)(O)OCC2CN(C)CC(n3c[n+](C)c4c(=O)[nH]c(N)nc43)O2)O[C@H]1n1cnc2c(=O)[nH]c(N)nc21 (stereo partly drawn) [Compound 006-39] | – | 1.5 | – | – | 6.7 to 8.7 µM |
| CO[C@@H]1[C@H](O)[C@@H](COP(=O)(O)OP(=O)([O-])OP(=O)(O)OCC2CN(Cc3ccccc3)CC(n3c[n+](C)c4c(=O)[nH]c(N)nc43)O2)O[C@H]1n1cnc2c(=O)[nH]c(N)nc21 (stereo partly drawn) [Compound 006-40] | – | 0.34 | – | – | 1.7 µM |
| C[n+]1cn([C@@H]2O[C@H](COP(=O)(O)OP(=O)(O)OP(=O)(O)OC[C@H]3O[C@@H](n4cnc5c(=O)[nH]c(N)nc54)[C@H](O)[C@@H]3O)[C@@H](O)[C@@]2(C)O)c2nc(N)[nH]c(=O)c21 [Compound 007-1] | 179 | 1 | – | – | 11 µM |
| C[C@@]1(O)[C@H](O)[C@@H](COP(=O)(O)OP(=O)(O)OP(=O)(O)OC[C@H]2O[C@@H](n3cnc4c(=O)[nH]c(N)nc43)[C@H](O)[C@@H]2O)O[C@H]1n1c[n+](CCOc2ccc(Cl)cc2)c2c(=O)[nH]c(N)nc21 [Compound 007-37] | – | 0.057 | – | – | 0.1 µM |
| CO[C@@H]1[C@H](O)[C@@H](COP(=O)(O)OP(=O)([O-])OP(=O)(O)OCC2O[C@@H](n3c[n+](C)c4c(=O)[nH]c(N)nc43)[C@](C)(O)[C@@H]2O)O[C@H]1n1cnc2c(=O)[nH]c(N)nc21 (stereo partly drawn) [Compound 007-38] | – | – | – | – | 11 µM |
| C[n+]1cn([C@@H]2O[C@H](COP(=O)([O-])OCCOCCOP(=O)([O-])OC[C@H]3O[C@@H](n4c[n+](C)c5c(=O)[nH]c(N)nc54)[C@H](O)[C@@H]3O)[C@@H](O)[C@H]2O)c2nc(N)[nH]c(=O)c21 [Compound 008-2] | – | – | – | – | 110 µM |
| C[n+]1cn([C@@H]2O[C@H](COP(=O)(O)OCCN(CCOP(=O)(O)OC[C@H]3O[C@@H](n4c[n+](C)c5c(=O)[nH]c(N)nc54)[C@H](O)[C@@H]3O)C(=O)OC(C)(C)C)[C@@H](O)[C@H]2O)c2nc(N)[nH]c(=O)c21 [Compound 008-25] | – | – | – | – | 300 µM |
